Patent US7129366B2, “Group of a novel anti-cancer compounds with specific structure” (Yang's Biochem Co. Ltd., priority 2001, dated 2006)
Where two headings read alike, the source gives them in different places. Marks after values point to notes of the source that are not given here.

Experiments:
mouse sarcoma S180 = assay: Mouse sarcoma S180 model, inhibition of tumor growth
Protocol: 50 female ICR strain mice, weighing 19–22 g, were randomly divided into 5 groups of 10 each. S180 sarcoma mass (about 2 mm^3 each) was transplanted subcutaneously into the right armpits of all animals following standard procedure. 3 test groups were given N-(12-methyl-tridecyl)hydrazine hydrochloride (Sample) at 0.1, 0.2, and 0.4 g/kg intragastrically (i.g.) daily for 11 days. The positive control group was given a single dose of cytoxan (CTX) i.g. (25 mg/kg) on day 1. The negative control group was given 0.8% Tween 80 at 0.4 ml/10 g daily for 11 days. On the 12th day, all mice were sacrificed and the tumor was isolated and weighed. The rate of inhibition of tumor growth was calculated and subject to t-test.

[1] = system: immune organs (thymus and pancreas); assay: Weights of immune organs (organ indices); type: in vivo, ICR strain mice
Text: The mice were sacrificed after the Serum hemolysinogenesis test above and the thymus and pancreas were collected and weighed.

[2] = system: reticuloendothelial system; assay: Phagocytic function of reticuloendothelial system, serum clearance index of carbon grain; type: in vivo, ICR strain mice
Protocol: One group was given N.S. at 20 ml/kg i.g. as a normal control. A positive control group was given CTX i.g. at 25 mg/kg on day 1 and 6.

serum hemolysinogenesis = type: in vivo, ICR strain mice
Protocol: The method of administration in each group was the same as above (phagocytic function). However, on the 6th day after administration, 0.2 ml 3:5 (V/V) sheep red blood cell (RBC) suspension was injected i.p. into each mouse. 4 days later (day 10), blood was drawn from all animals and serum was prepared and then diluted 600 times. 1 ml diluted serum was mixed with 0.5 ml 10% sheep RBC suspension. N.S. was used as blank control. All samples were incubated at 37° C. for 30 minutes, and centrifuged (2000 rev/min) for 5 minutes. The supernatant was collected for measurement of OD540 and HC50 was calculated.

[3] = system: body skin ulcerous wounds (inflammation); assay: Topical application to patients with body skin ulcerous wounds; type: in vivo, human; details: oil state applied directly on inflamed surface
Text: 12-Methyl-2-tetradecenoic acid in an oil state was directly applied on the inflamed surface of patients with body skin ulcerous wounds.

[4] = system: oral adnoma and tongue cancer; assay: Topical application to patients of oral adnoma and tongue cancer; type: in vivo, human; details: oil state applied directly on focus surface, about one week later
Text: 12-Methyl-2-tetradecenoic acid in an oil state was directly applied on the focus surface of oral or tongue to patients of oral adnoma and tongue cancer.

UVB-induced skin cancer = assay: Prevention of ultraviolet B ray (UVB)-induced skin cancer, DMBA-initiated; type: in vivo, SKH-1 hairless mice; details: topical 200 μl of 10% Sample solution once a day, UVB 180 mJ/cm^2 per day, end of 30 weeks
Protocol: N-(12-methyl-tridecyl)hydrazine hydrochloride (Sample) was resolved with 0.8% Tween resulting in a final concentration of 10%.
Forty female SKH-1 hairless mice were randomly divided into control and test groups of 20 each. Each mouse in both groups was treated topically once with DMBA (5.12 μg dissolved in 200 μl acetone solution) to achieve tumor initiation. One week later (day 8), animals in test group started to receive topical application of 200 μl. Sample solution once a day. The control group received 200 μl Tween 80 solvent instead every day. Thirty minutes after the application, animals in both groups were exposed to UVB (290–320 nm) radiation at the dosage of 180 mJ/cm^2 per day to induce growth of tumor. The animals were evaluated for tumor development at the end of 30 weeks.

[5] = Sample 0.1 g/kg i.g. + CTX 25 mg/kg
[6] = Sample 0.4 g/kg i.g. + CTX 25 mg/kg
[7] = normal mice, Sample 0.4 g/kg i.g.

O=P1(N(CCCl)CCCl)NCCCO1 (centres unmarked) [CTX, cytoxan, reference compound]
Inhibition Rate (mouse sarcoma S180; CTX 25 mg/kg i.g. single dose on day 1): 71.82% | Tumor Weight (X ± SD) (mouse sarcoma S180; CTX 25 mg/kg i.g. single dose on day 1, 12th day): 0.31 ± 0.11^b g | Body Weight after treatment (X ± SD) (mouse sarcoma S180; S180 mice, CTX 25 mg/kg i.g. single dose on day 1): 25.6 ± 1.6 g | Indices of pancreas ([1]; CTX 25 mg/kg i.g. alone): 2.154 ± 1.189^ mg/10 g avoirdupois | Indices of thymus ([1]; CTX 25 mg/kg i.g. alone): 1.296 ± 0.665^ mg/10 g avoirdupois | K (X ± SD), serum clearance index of carbon grain ([2]; CTX 25 mg/kg i.g. on day 1 and 6 alone): 0.0260 ± 0.0116 | HC50 (X ± SD) (serum hemolysinogenesis; CTX 25 mg/kg i.g. alone): 21.83 ± 4.29

CCC(C)CCCCCCCC/C=C/C(=O)O (centres unmarked) [Compound 1, 12-Methyl-2-tetradecenoic acid]
anti-inflammation function compared to common anti-inflammatory cream [3]: better anti-inflammation function | healing of ulcerous wound [3]: the ulcerous wound healed quickly | effect on focus of oral adnoma and tongue cancer [4]: the focus reduced, swelling disappeared

CC(C)CCCCCCCCCCCNN.Cl [Compound 45, N-(12-methyl-tridecyl)hydrazine hydrochloride]
average size of cancer smaller than control (UVB-induced skin cancer): 85% | reduction in tumor incidence compared to control group (UVB-induced skin cancer): 45% | Inhibition Rate (mouse sarcoma S180; Sample 100 mg/kg i.g. daily for 11 days): 36.36% | Tumor Weight (X ± SD) (mouse sarcoma S180; Sample 100 mg/kg i.g. daily for 11 days, 12th day): 0.70 ± 0.12^b g | Inhibition Rate (mouse sarcoma S180; Sample 200 mg/kg i.g. daily for 11 days): 62.73% | Tumor Weight (X ± SD) (mouse sarcoma S180; Sample 200 mg/kg i.g. daily for 11 days, 12th day): 0.41 ± 0.10^b g | Inhibition Rate (mouse sarcoma S180; Sample 400 mg/kg i.g. daily for 11 days): 70.00% | Tumor Weight (X ± SD) (mouse sarcoma S180; Sample 400 mg/kg i.g. daily for 11 days, 12th day): 0.33 ± 0.10^b g | Indices of pancreas [1, 5]: 2.459 ± 0.799^ mg/10 g avoirdupois | Indices of thymus [1, 5]: 2.448 ± 0.603^a mg/10 g avoirdupois | Indices of pancreas [1, 6]: 3.506 ± 1.223^ mg/10 g avoirdupois | Indices of thymus [1, 6]: 3.307 ± 0.721^a mg/10 g avoirdupois | indices of immune organs after combined administration ([1]; mice treated by CTX, combined with Sample): these indices increased | effect on the indices of immune organs ([1]; normal mice, thymus and pancreas (P1,3>0.05)): no significant effect | Indices of pancreas [1, 7]: 4.541 ± 0.508^a mg/10 g avoirdupois | Indices of thymus [1, 7]: 3.617 ± 1.334^a mg/10 g avoirdupois | effect on the clearance of Carbon grain ([2]; CTX-treated mouse, Sample 100 and 400 mg/kg): improve the clearance of Carbon grain in CTX-treated mouse to a certain extent | K (X ± SD), serum clearance index of carbon grain ([2]; Sample 100 mg/kg i.g. daily for 9 days + CTX 25 mg/kg on day 1 and 6): 0.0433 ± 0.0401 | K (X ± SD), serum clearance index of carbon grain ([2]; Sample 400 mg/kg i.g. daily for 9 days + CTX 25 mg/kg on day 1 and 6): 0.0603 ± 0.0371 | effect on the Clearance Index of Carbon grain ([2]; normal mouse (P1,3>0.05)): no obvious effect | K (X ± SD), serum clearance index of carbon grain ([2]; normal mouse, Sample 400 mg/kg i.g. daily for 9 days): 0.0792 ± 0.0230 | HC50 (X ± SD) (serum hemolysinogenesis; [5]): 22.45 ± 4.12 | HC50 (X ± SD) (serum hemolysinogenesis; [6]): 24.01 ± 3.87 | HC50 (X ± SD) (serum hemolysinogenesis; normal mouse, Sample 0.4 g/kg i.g.): 32.08 ± 5.06 | effects on serum hemolysinogenesis (serum hemolysinogenesis; normal or immune-compromised mouse): no obvious effects
